What all share (type): cell-based
Assay [1] relates to P. aeruginosa strain PAO1. Description: Biofilm prevention screen (96-well microplate, crystal violet). The note with it: Pseudomonas aeruginosa, positive = prevention, negative = enhancement of biofilm formation, quadruplicate, read-out: average percentage reduction of biofilm formed relative to DMSO controls. As to the method: (§1) Overnight cultures of 3 mL are made of P. aeruginosa strain PAO1 (grown in R2A medium (Handbook of Microbiological Media; CRC Press, 1997, second edition, R. M. Atlas, ed.), modified to omit Mg^2+ but to include 0.3–0.5% fructose (pH 7.0) and 3 μM ferrous ammonium sulfate), P. fluorescens strain ATCC 13525 (grown in R2A modified to omit Mg^2+ but to include 0.3–0.5% sodium pyruvate (pH 7.0)), S. epidermidis strain ATCC 35984 (grown in a ¼ dilution of TSB (Handbook of Microbiological Media; CRC Press, 1997, second edition, R. M. Atlas, ed.) supplemented with 1% fructose (pH 7.0) and 3 μM ferrous ammonium sulfate). To each type of growth medium, HEPES (pH 7.3) is optionally added to a final concentration of 10 mM.
(§2) To PS, PVC, or PP (preferably PP or PVC) round-bottom, 96-well microplates containing 100 μl per well of the respective growth medium as described above, compounds to be tested (dissolved in DMSO) are added and mixed, to give a final concentration of 250–500 μM. These microplates then also are used to make successive dilutions of the compounds in the same respective growth medium to yield microplates containing final concentrations of, for example, 160 μM and 32 μM of the same set of compounds. Control wells are included in the dilution series that contain only DMSO. From the 3 ml overnight cultures, each of the three dilution plate sets is inoculated with 5 μl per well of a 1:1 dilution in the same liquid growth media of the appropriate culture. The covered plate is then incubated with shaking, at 30° C. (for P. aeruginosa or P. fluorescens) or 37° C. (for S. epidermidis), at 200 rpm, for 16–26 hours, in a humidity controlled environment.
(§3) Cells present in biofilm attached to the microplate surface are stained with CV either after removal of the liquid from each well, followed by rinsing three times (aspiration and addition) with 150 μl per well phosphate buffered saline solution (PBS) and final addition of 100 μl per well of PBS, or by direct addition of stain to bacterial cultures without rinsing. To 100 μl per well of PBS or of bacterial culture, 25 μl/well of 1% CV solution (in ˜10% ethanol) is added. After incubation at room temperature for 45 minutes, the dye solution is removed from the plates. Residual dye is immediately removed by gentle rinsing with a stream of deionized water by filling and inverting the plates 4–5 times, or by using an automated pipettor. Rinsed plates are air-dried at room temperature for 0.5–2 hours. Bound dye is extracted by the addition of 150 μL per well of 95% ethanol, followed by vigorous mixing for 10–15 seconds and incubation for 45 minutes at room temperature without shaking. Subsequently, either undiluted or diluted (in ethanol) samples of extracted CV are transferred to flat bottom, polystyrene microtiter plates and absorbances at 586 nm were measured in a microplate reader. Readings from wells containing compounds are compared to the average of data from control wells that contain only DMSO. Replicate samples are measured, and results are reported as averages of the replicate well data points.
(§4) Data are expressed in terms of the average percentage reduction of biofilm formed in the presence of each compound, relative to the DMSO controls, for quadruplicate samples. Assays are run using the three compound concentrations indicated. Positive numbers indicate prevention of biofilm formation by a compound, and negative numbers indicate enhancement of biofilm formation by a compound (percentage coefficients of variation are ≦10%).

Assay [2] deals with P. fluorescens strain ATCC 13525. Described as above. The settings on record: Pseudomonas fluorescens, positive = prevention, negative = enhancement of biofilm formation, quadruplicate, read-out: average percentage reduction of biofilm formed relative to DMSO controls; for inhibition at 32 µM: ATCC13525, 32 μM; for inhibition at 160 µM: ATCC13525, 160 μM; for inhibition at 390 µM: ATCC13525, 390 μM. As to the method: as §1, §2, §3, §4

The test system of assay [3] is S. epidermidis strain ATCC 35984. The description is as above. The settings on record: Staphylococcus epidermidis, positive = prevention, negative = enhancement of biofilm formation, quadruplicate, read-out: average percentage reduction of biofilm formed relative to DMSO controls; for inhibition at 32 µM: ATCC35984, 32 μM; for inhibition at 160 µM: ATCC35984, 160 μM; for inhibition at 390 µM: ATCC35984, 390 μM. As to the method: as §1, §2, §3, §4

Assay [4] deals with P. aeruginosa strain PAO1. Description: Improved biofilm dispersion screen (already-formed biofilms, crystal violet). The note with it: Pseudomonas aeruginosa, 30 mM NaOH step, positive = dispersion, negative = enhancement of pre-existing biofilm, quadruplicate, read-out: average percentage reduction of biofilm relative to the two control values (dispersion). As to the method: (§5) A modification of method disclosed in Reference Example 2, which greatly improves the sensitivity and reproducibility of the dispersion screen is hereby disclosed. […] In the modification described herein, compounds are added in the presence of the fresh liquid growth media, such that the resultant biofilms continue to grow, unless a test compound triggers their dispersion. Overnight cultures are made as above, and 100 μL of the appropriate liquid growth media are dispensed into duplicate 96 well microplates—in this fashion, two identical microplates are set up for each bacterial species to be assayed. Neither compounds nor DMSO are added prior to the inoculation of bacteria, and growth in the duplicate plates for 24 hours is allowed using the conditions specified in Reference Example 1. After growth of biofilm to be tested in the wells, cells present in biofilm attached to one of the duplicate microplates is stained with CV, quantitated as described in Reference Example 1, and the data for the entire plate averaged, resulting in a growth control value, t0. The remaining replicate of each microplate pairs is treated with compounds in DMSO, or DMSO alone for control wells, by first removing the cell suspensions from the wells, then adding fresh 100 μL volumes of the same appropriate liquid growth media, followed by direct addition and mixing of the compound DMSO solutions to give final compound concentrations of 390 μM. Incubation of the compound-containing microplates is then continued for an additional 22–26 hours using the same conditions described in Reference Example 1. Cell suspensions are then removed, 100 μL per well of a 0 mM NaOH (S. epidermidis), 20 mM NaOH (P. fluorescens), or 30 mM NaOH (P. aeruginosa) solution in PBS is added, and incubation at room temperature is allowed for 30 minutes. No addition of NaOH is made to the S. epidermidis suspension since a test assay indicated no amplification by base with S. epidermidis. The microplates are subsequently rinsed three times with 150 μL per well of PBS, followed by final liquid removal, staining with CV and quantitation as described in Reference Example 1. Data for each well that contained compound result in a compound value, R, and data for control wells that contained DMSO only are averaged to generate a second control value, t24. The effect of each compound tested on dispersion of the biofilm compared to the two control values is calculated thus: [formula] […] Data are expressed in terms of the average percentage reduction of biofilm formed in the presence of each compound, relative to the two control values, for quadruplicate samples. Assays are run as described above, using compound concentrations of 390 μM. Positive numbers indicate dispersion (reduction) of pre-existing biofilms by a compound, and negative numbers indicate enhancement (stimulation of growth) of pre-existing biofilms by a compound (percentage coefficients of variation are ≦15%).

Assay [5] relates to P. fluorescens strain ATCC 13525. Described as above. The settings on record: Pseudomonas fluorescens, ATCC13525, 20 mM NaOH step, positive = dispersion, negative = enhancement of pre-existing biofilm, quadruplicate, read-out: average percentage reduction of biofilm relative to the two control values (dispersion). As to the method: as §5
The test system of assay [6] is S. epidermidis strain ATCC 35984. The description is as above. The note with it: Staphylococcus epidermidis, ATCC35984, no NaOH, positive = dispersion, negative = enhancement of pre-existing biofilm, quadruplicate, read-out: average percentage reduction of biofilm relative to the two control values (dispersion). As to the method:
as §5

Consider `CCCCCCNC(=O)[C@H]1CCCN1C(=O)OC(C)(C)C` [Compound 153], for which the inhibition at 32 µM in assay [1] is -9%; in assay [2], 7%; in assay [3], -8%. For the same compound, the figures for the inhibition at 160 µM in assay [1], in assay [2] and in assay [3] were -6%, 4% and -7%, respectively. In addition, the inhibition at 390 µM in assay [1] was -4%; in assay [2], -3%; in assay [3], -17%; in assay [4], -7%; in assay [5], 1%; in assay [6], -10%.
As to `CCCCNC(=O)[C@@H]1CCCN1C(=O)OC(C)(C)C` [Compound 155], the inhibition at 32 µM is -5% in assay [1], 10% in assay [2] and -3% in assay [3]. Further, the inhibition at 160 µM in assay [1] is 2%; in assay [2] it was 4%; in assay [3], -1%. Also, the inhibition at 390 µM in assay [1] was 6%; in assay [2], 4%; in assay [3], 21%; in assay [4], -12%; in assay [5], 3%; in assay [6], -4%.
`CCCCCCCCCCNC(=O)[C@@H]1CCN1` [Compound 289, (S)-(−)-2-azetidinecarboxylic acid n-decyl amide]: the inhibition at 32 µM was 9% in assay [1], -8% in assay [2] and 39% in assay [3]. Further, the inhibition at 160 µM in assay [1] is -2%; in assay [2], 45%; in assay [3], 101%. In addition, the inhibition at 390 µM in assay [1] is 77%; in assay [2], 99%; in assay [3], 101%; in assay [4] it was -54%; in assay [5], 19%; in assay [6], 84%.
For the compound `CCCCCCCCCCNC(=O)[C@H]1CCCN1C(=O)OC(C)(C)C` [Compound 158], the figures for the inhibition at 32 µM in assay [1], in assay [2] and in assay [3] were 1%, 3% and -10%, respectively. In addition, the inhibition at 160 µM was -34% in assay [1], -11% in assay [2] and 52% in assay [3]. Moreover, the inhibition at 390 µM in assay [1] is -40%; in assay [2] it was -40%; in assay [3], 54%; in assay [4], -53%; in assay [5] it was -79%; in assay [6], 0%.
Consider `CCCCCCCCCCCCNC(=O)[C@@H]1CCN1` [Compound 290], for which the inhibition at 32 µM in assay [1] was 6%; in assay [2], -12%; in assay [3], 101%. Moreover, the inhibition at 160 µM is -16% in assay [1], 98% in assay [2] and 100% in assay [3]. For the same compound, the inhibition at 390 µM is 37% in assay [1]; 93% in assay [2]; 97% in assay [3]; -72% in assay [4]; 21% in assay [5]; 82% in assay [6].
With `CCCCCCCCNC(=O)[C@H]1CCCCN1` [Compound 23, (R)-(+)-2-piperidinecarboxylic acid n-octyl amide], the inhibition at 32 µM is -5% in assay [1], -23% in assay [2] and -1% in assay [3]. Further, the inhibition at 160 µM is -31% in assay [1], -13% in assay [2] and 15% in assay [3]. Moreover, the inhibition at 390 µM in assay [1] is -3%; in assay [2] it was 21%; in assay [3], -36%; in assay [4] it was 0%; in assay [5], 26%; in assay [6], 0%.
For the compound `CCCCCCCCCCNC(=O)[C@H]1CCCN1` [Compound 166], the inhibition at 32 µM was found to be 10% in assay [1], 0% in assay [2] and 13% in assay [3]. Also, the inhibition at 160 µM in assay [1] amounted to 22%; in assay [2], 57%; in assay [3] it was 100%. The inhibition at 390 µM was 96% in assay [1]; 98% in assay [2]; 101% in assay [3]; -2% in assay [4]; 0% in assay [5]; 70% in assay [6].
